Measured values published in patent US10160747B2, “Compounds and methods for kinase modulation, and indications therefor” (Plexxikon Inc., priority 2016, dated 2018).

The compounds below were run against T1, BA/F3-FLT3-ITD + D835Y (Homo sapiens, UniProt P36888, D835Y, cells depend on it, form not given) (assay: Engineered BA/F3 cell growth assay, FLT3 ITD/D835Y). Details: 3 d growth.
T1 sequence (P36888 with tags, fused parts or gaps INS600HVDFREYEYD/D835Y): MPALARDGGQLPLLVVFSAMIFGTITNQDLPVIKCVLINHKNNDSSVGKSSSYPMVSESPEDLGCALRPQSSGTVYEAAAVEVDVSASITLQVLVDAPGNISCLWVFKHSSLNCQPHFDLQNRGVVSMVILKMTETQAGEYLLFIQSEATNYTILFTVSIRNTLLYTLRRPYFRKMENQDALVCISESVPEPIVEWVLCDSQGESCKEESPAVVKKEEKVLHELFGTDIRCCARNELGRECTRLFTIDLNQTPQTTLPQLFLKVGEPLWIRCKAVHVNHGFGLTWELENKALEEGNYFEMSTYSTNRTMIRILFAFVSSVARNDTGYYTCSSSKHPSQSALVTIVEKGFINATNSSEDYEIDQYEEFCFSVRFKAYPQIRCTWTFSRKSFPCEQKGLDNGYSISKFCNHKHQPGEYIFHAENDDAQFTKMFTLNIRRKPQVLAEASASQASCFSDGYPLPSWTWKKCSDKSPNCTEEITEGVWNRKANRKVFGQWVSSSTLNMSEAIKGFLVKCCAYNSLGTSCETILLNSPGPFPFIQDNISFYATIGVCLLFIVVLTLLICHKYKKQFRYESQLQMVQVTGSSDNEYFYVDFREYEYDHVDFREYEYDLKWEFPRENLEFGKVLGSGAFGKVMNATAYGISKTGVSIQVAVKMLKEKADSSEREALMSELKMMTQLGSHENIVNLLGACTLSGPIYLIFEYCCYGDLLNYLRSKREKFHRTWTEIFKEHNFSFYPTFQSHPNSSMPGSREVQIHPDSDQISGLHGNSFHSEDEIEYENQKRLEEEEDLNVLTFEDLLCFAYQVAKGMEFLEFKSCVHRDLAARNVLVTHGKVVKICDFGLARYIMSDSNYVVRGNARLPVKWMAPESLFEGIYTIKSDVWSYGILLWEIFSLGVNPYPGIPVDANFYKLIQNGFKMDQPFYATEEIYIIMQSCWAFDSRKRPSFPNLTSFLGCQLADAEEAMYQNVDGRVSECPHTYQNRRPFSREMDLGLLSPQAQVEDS
Assay type: cell-based, murine
In short: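 Murine Ba/F3 cells transfected with full-length FLT3 ITD/D835Y, grown without IL-3 so growth depends on FLT3. Seeded at 1×10^4 cells/well, 8-point 1:3 series to 1 μM top (0.2% DMSO), 3 days at 37 °C. CellTiter-Glo luminescence (ATP) versus concentration gave IC50.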

GI50, 0.0001 to 10 µM:
CCn1cc(Nc2ncc(-c3cc(F)c(CC(=O)Nc4cnc(C)c(C(F)(F)F)c4)cc3F)cn2)cn1 [Compound P-0249, 2-[4-[2-[(1-ethylpyrazol-4-yl)amino]pyrimidin-5-yl]-2,5-difluoro-phenyl]-N-[6-methyl-5-(trifluoromethyl)-3-pyridyl]acetamide]
COc1ncc(NC(=O)Cc2cc(F)c(-c3cnc(Nc4cnn(C)c4)nc3)cc2F)cc1C(F)(F)F [Compound P-0208, 2-[2,5-difluoro-4-[2-[(1-methylpyrazol-4-yl)amino]pyrimidin-5-yl]phenyl]-N-[6-methoxy-5-(trifluoromethyl)-3-pyridyl]acetamide]
O=C(Cc1ccc(-c2cnc(Nc3cnn(C4CC4)c3)nc2)cc1F)Nc1ccc(C(F)(F)F)cn1 [Compound P-0243, 2-[4-[2-[(1-cyclopropylpyrazol-4-yl)amino]pyrimidin-5-yl]-2-fluoro-phenyl]-N-[5-(trifluoromethyl)-2-pyridyl]acetamide]
CCn1cc(Nc2ncc(-c3ccc(CC(=O)Nc4cnc(C)c(C(F)(F)F)c4)cc3F)cn2)cn1 [Compound P-0248, 2-[4-[2-[(1-ethylpyrazol-4-yl)amino]pyrimidin-5-yl]-3-fluoro-phenyl]-N-[6-methyl-5-(trifluoromethyl)-3-pyridyl]acetamide]
COc1ncc(NC(=O)Cc2ccc(-c3cnc4[nH]c(-c5ccnc(C#N)c5)cc4c3)c(F)c2)cc1C(F)(F)F [Compound P-0016, 2-[4-[2-(2-cyano-4-pyridyl)-1H-pyrrolo[2,3-b]pyridin-5-yl]-3-fluoro-phenyl]-N-[6-methoxy-5-(trifluoromethyl)-3-pyridyl]acetamide]
COc1cc(-c2cc3cc(-c4ccc(CC(=O)Nc5cncc(C(F)(F)F)c5)cc4F)cnc3[nH]2)ccn1 [Compound P-0200, 2-(3-fluoro-4-(2-(2-methoxypyridin-4-yl)-1H-pyrrolo[2,3-b]pyridin-5-yl)phenyl)-N-(5-(trifluoromethyl)pyridin-3-yl)acetamide]
CCOc1n[nH]c2ncc(-c3ccc(CC(=O)Nc4cnc(C)c(C(F)(F)F)c4)cc3)cc12 [Compound P-0217, 2-[4-(3-ethoxy-1H-pyrazolo[3,4-b]pyridin-5-yl)phenyl]-N-[6-methyl-5-(trifluoromethyl)-3-pyridyl]acetamide]
